Test results as given in ChEMBL document CHEMBL1201862, “PubChem BioAssay data set” (2004).
Several values for one entry are separate records, joined by “and”; a condition that tells them apart may be missing. Identical values can stand only once. Activity calls are given as the source filed them.

What was measured:
A-375 [1] = assay: MITF: Counter assay: A375 proliferation Measured in Cell-Based System Using Plate Reader - 2084-03_Inhibitor_Dose_DryPowder_Activity. [Related pubchem assays (depositor defined):AID488944]; format: functional; details: Homo sapiens
A-375 [2] = assay: A375 melanoma cell viability reduction, dose response, counter-screen for MITF modulator project, cherry-pick samples, set 2 (AID 540335); format: functional, cell-based; details: Homo sapiens
[3] = biological target: T1, Aryl hydrocarbon receptor (Homo sapiens, UniProt P35869); details: Potency;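 note: confirmatory quantitative high-throughput screen measuring activation of the AhR signaling pathway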
T1 sequence (P35869 whole entry): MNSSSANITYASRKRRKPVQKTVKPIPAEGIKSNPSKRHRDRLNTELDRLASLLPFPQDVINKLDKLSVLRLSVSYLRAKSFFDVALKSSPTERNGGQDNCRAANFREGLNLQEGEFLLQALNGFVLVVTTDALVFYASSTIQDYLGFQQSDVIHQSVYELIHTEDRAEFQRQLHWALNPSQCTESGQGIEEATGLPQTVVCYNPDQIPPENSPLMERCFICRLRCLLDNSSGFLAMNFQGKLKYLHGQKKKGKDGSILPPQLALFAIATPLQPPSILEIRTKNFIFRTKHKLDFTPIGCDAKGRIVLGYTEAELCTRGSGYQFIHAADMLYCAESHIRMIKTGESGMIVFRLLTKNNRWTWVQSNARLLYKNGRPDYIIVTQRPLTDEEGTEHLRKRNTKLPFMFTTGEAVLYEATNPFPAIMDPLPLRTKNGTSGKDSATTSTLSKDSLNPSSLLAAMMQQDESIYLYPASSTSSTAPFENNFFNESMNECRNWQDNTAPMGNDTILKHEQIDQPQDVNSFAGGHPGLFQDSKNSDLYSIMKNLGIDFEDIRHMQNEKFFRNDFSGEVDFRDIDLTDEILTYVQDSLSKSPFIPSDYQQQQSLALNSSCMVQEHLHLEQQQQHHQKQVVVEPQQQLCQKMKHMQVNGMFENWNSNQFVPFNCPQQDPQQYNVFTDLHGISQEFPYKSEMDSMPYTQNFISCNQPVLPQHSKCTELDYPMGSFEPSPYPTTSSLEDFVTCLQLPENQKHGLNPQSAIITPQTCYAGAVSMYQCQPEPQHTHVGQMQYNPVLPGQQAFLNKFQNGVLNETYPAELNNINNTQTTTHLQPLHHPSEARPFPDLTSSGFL

[4] = biological target: DNA dC->dU-editing enzyme APOBEC-3A (Homo sapiens, UniProt P31941); assay: Dose Response confirmation of small molecule APOBEC3A DNA Deaminase Inhibitors via a fluorescence-based single-stranded DNA deaminase assay. [Related pubchem assays (depositor defined):AID493011, AID493024]; format: functional
[5] = biological target: T2, Carboxy-terminal domain RNA polymerase II polypeptide A small phosphatase 1 (Homo sapiens, UniProt Q9GZU7); assay: inhibitors of CTDSP1, concentration-response testing, biochemical assay, absorbance-based, actives from ultra-high-throughput screening (AID 540297); format: functional
T2 sequence (Q9GZU7 whole entry): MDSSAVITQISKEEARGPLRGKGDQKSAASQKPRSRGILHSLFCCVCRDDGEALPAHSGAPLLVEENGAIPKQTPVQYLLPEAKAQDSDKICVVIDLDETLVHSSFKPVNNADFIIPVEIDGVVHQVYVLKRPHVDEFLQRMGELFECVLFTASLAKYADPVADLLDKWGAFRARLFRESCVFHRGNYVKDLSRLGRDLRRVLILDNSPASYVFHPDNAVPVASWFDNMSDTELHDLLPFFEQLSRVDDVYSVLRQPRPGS

[6] = biological target: DNA dC->dU-editing enzyme APOBEC-3G (Homo sapiens, UniProt Q9HC16); format: functional;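 note: Dose-response counterscreen measuring inhibition of APOBEC3G DNA deaminase activity, run while confirming APOBEC3A inhibitors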
[7] = biological target: Ras and Rab interactor 1/Tyrosine-protein kinase ABL1 (Homo sapiens, UniProt P00519+Q13671); format: functional;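 note: biochemical TR-FRET dose-response test measuring inhibition of binding between Rin1 and Abl proteins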
H4 = assay: Luminescence Cell-Based Dose Response HTS to Identify Activators of 5'UTR Stem-Loop Driven Prion Protein mRNA Translation in H4 Neuroglioblastoma Cells. [Related pubchem assays: 1829 (Project Summary), 1814 (Primary HTS)]; format: functional; details: Homo sapiens
[8] = Luminescence Cell-Based Dose Response HTS to Identify Activators of Luciferase Translation or Activity in H4 […] Cells. [Related pubchem assays: 1829 (Project Summary), 1814 (Primary HTS)]; format: functional
Cytochrome P450 1A2 = biological target: T3, Cytochrome P450 1A2 (Homo sapiens, UniProt P05177);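 note: PubChem cytochrome P450 panel assay, CYP1A2 panel member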
T3 sequence (P05177 whole entry): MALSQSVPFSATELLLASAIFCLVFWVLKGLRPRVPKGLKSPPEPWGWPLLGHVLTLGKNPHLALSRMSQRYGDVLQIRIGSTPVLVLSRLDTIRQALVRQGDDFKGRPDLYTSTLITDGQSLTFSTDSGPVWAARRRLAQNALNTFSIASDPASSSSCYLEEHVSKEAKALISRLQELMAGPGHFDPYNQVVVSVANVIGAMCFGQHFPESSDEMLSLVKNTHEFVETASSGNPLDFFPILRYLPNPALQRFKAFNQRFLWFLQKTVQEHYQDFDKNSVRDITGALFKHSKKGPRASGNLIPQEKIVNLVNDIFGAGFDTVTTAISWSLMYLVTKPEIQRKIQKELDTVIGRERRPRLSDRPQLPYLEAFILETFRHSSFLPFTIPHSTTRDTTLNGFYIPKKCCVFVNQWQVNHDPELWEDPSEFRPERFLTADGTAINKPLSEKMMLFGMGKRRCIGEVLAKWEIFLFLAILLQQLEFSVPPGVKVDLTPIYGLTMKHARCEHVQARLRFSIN

Cytochrome P450 3A4 [9] = biological target: T4, Cytochrome P450 3A4 (Homo sapiens, UniProt P08684)
[10] = Luminescence Cell-Based Dose Confirmation HTS to Identify Activators of 5'UTR Stem-Loop Driven Alpha-Synuclein mRNA Translation in H4 Neuroglioblastoma Cells. [Related pubchem assays: 1829 (Project Summary), 1814 (Primary HTS)]; format: functional
HEK293 = assay: inhibitors of LMP1-driven NF-kB reporter, dose response, cell-based, HEK293, luciferase, cherry-pick (AID 588343); format: functional; details: Homo sapiens
[11] = biological target: T5, Ubiquitin-conjugating enzyme E2 N (Homo sapiens, UniProt P61088); format: functional;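 note: Dose-response confirmation in a TR-FRET assay detecting UBC13-driven polyubiquitin chain formation, inhibition measured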
T5 sequence (P61088 whole entry): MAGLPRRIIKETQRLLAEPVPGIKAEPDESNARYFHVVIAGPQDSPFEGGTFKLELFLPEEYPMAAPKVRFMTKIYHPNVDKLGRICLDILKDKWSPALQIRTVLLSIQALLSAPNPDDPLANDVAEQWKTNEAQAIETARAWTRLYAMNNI

Protein Wnt-3a = Protein Wnt-3a (Mus musculus, UniProt P27467); assay: Wnt3a-driven reporter signaling inhibition, dose response, selectivity assay for Gli-SUFU antagonist project, Wnt-LIGHT cells, luminescence (AID 651570); format: functional; details: read-out: IC50_Mean;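 note: Wnt-LIGHT reporter cells stimulated with conditioned medium from Wnt3a-producing cells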
[12] = C. albicans growth with fluconazole, confirmation, fluorescence, retest (AID 2467); format: functional, cell-based
INS1 = assay: beta cell apoptosis inhibitors, cytokine rescue, dose response, luminescence, retest (AID 449756); format: functional, cell-based; details: Rattus norvegicus;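 note: cell death triggered by IL-1 beta plus TNF-alpha plus IFN-gamma mixture; protective hits raise ATP signal compared with cytokine alone wells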
[13] = NIH-3T3 fibroblast cytotoxicity, dose response, cytotoxicity control, cell-based, fluorescence, Alamar Blue, secondary assay (AID 2327); format: functional;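 note: NIH-3T3 mouse fibroblasts cultured with fluconazole at 8 µg/mL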
[14] = biological target: T6, Apoptotic protease-activating factor 1 (Homo sapiens, UniProt O14727); format: functional
T6 sequence (O14727 whole entry): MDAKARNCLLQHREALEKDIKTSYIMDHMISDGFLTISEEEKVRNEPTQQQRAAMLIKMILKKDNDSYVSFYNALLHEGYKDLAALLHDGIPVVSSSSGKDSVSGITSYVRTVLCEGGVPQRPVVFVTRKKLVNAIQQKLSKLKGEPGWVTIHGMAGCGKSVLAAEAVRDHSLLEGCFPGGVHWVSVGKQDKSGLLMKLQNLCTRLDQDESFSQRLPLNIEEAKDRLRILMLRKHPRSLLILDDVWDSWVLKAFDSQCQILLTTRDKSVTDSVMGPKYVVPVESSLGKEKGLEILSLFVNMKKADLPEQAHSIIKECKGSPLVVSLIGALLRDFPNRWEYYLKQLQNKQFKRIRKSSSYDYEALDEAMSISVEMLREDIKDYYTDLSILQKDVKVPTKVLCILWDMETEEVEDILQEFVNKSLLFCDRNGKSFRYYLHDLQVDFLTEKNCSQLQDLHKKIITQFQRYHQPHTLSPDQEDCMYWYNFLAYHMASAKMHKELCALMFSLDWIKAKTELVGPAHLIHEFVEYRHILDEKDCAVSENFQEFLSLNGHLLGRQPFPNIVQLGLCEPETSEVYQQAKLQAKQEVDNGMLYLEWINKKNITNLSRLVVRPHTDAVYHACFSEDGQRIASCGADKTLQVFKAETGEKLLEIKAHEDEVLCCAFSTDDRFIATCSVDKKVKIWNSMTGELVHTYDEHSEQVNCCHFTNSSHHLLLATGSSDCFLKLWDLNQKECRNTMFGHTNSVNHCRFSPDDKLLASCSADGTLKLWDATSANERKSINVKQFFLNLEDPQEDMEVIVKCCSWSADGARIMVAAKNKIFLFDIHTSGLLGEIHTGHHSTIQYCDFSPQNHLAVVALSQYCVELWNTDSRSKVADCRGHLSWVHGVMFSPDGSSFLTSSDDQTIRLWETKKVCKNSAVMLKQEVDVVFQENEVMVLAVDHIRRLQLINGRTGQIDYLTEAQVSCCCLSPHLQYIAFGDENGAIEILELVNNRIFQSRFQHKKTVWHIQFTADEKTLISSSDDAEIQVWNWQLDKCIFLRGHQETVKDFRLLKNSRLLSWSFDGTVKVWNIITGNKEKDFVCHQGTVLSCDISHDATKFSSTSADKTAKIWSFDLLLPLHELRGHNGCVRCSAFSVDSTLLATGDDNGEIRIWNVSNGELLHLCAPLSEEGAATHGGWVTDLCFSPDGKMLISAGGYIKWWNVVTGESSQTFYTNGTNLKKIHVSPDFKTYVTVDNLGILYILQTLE

[15] = HEp-2 cell cytotoxicity, dose response, cytotoxicity control for RSV inhibitor project, HTS (AID 2410); format: functional; details: human respiratory syncytial virus
P388 = assay: cells; format: functional; details: Mus musculus
SN12K1 = assay: cells; format: functional; details: Homo sapiens
P388/ADR = assay: cells; format: functional; details: Mus musculus
Cytochrome P450 3A4 [16] = biological target: T4, Cytochrome P450 3A4; details: Potency

Sequence of Ras and Rab interactor 1/Tyrosine-protein kinase ABL1 (P00519 whole entry): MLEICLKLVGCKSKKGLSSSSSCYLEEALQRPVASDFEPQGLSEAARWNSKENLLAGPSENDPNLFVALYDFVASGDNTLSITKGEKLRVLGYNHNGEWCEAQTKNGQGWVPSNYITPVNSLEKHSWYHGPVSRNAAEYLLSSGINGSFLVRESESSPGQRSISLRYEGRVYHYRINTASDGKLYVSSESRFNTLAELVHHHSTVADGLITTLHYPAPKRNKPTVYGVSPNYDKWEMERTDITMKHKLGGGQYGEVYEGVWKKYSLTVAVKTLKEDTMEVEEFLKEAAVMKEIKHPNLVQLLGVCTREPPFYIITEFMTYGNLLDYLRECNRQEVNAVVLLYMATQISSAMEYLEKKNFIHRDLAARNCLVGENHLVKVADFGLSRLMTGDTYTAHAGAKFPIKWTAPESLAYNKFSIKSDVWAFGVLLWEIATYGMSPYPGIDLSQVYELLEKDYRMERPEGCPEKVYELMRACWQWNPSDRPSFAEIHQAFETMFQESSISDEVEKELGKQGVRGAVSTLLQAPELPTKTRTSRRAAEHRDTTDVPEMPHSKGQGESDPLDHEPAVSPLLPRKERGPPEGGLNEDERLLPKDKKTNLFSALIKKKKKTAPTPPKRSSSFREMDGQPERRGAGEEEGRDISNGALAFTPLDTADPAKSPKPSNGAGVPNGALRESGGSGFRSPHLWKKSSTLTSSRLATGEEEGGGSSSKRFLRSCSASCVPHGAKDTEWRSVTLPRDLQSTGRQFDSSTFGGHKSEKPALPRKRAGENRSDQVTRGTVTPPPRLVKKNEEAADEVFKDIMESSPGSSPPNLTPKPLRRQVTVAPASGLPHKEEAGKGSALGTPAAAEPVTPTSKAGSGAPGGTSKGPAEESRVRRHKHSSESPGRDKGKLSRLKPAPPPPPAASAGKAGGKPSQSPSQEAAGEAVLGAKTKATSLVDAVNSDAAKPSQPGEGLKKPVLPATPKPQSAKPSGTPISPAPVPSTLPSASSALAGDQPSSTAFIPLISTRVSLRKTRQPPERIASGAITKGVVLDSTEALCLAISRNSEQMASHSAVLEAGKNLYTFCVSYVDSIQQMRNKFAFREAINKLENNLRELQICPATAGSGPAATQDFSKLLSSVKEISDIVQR
Sequence of Ras and Rab interactor 1/Tyrosine-protein kinase ABL1 (Q13671 whole entry): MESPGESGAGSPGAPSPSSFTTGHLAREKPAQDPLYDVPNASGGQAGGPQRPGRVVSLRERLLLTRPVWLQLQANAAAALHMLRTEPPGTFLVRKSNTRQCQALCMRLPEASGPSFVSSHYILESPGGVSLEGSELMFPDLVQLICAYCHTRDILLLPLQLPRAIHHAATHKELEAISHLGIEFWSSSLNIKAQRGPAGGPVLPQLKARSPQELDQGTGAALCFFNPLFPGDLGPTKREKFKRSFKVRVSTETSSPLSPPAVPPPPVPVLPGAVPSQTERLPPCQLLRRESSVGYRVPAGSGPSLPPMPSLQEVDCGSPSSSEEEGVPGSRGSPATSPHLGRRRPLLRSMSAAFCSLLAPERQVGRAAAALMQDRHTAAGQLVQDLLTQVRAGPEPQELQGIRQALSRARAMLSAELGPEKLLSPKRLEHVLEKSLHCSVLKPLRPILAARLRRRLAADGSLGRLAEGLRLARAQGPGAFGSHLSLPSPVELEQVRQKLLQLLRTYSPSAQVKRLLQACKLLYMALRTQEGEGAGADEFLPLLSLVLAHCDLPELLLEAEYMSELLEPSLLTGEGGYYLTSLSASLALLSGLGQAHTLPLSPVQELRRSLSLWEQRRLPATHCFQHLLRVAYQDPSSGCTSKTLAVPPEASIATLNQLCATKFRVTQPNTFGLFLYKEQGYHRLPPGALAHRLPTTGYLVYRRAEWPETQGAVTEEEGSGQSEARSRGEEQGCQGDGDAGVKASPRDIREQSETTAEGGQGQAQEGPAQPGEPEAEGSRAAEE
T4 sequence (P08684 whole entry): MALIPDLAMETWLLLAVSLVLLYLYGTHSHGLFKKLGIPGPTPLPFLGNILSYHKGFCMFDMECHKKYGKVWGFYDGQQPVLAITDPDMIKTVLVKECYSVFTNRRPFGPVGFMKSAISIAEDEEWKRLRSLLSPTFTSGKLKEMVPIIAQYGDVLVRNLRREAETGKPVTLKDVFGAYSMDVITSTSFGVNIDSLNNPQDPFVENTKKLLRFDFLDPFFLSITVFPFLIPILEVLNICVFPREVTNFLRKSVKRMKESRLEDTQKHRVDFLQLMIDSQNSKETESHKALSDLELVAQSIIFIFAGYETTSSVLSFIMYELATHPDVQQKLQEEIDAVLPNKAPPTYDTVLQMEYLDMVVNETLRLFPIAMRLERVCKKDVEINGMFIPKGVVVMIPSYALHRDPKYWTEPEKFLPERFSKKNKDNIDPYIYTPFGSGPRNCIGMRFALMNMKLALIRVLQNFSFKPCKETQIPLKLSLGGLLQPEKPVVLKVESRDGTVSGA
Sequence of DNA dC->dU-editing enzyme APOBEC-3G (Q9HC16 whole entry): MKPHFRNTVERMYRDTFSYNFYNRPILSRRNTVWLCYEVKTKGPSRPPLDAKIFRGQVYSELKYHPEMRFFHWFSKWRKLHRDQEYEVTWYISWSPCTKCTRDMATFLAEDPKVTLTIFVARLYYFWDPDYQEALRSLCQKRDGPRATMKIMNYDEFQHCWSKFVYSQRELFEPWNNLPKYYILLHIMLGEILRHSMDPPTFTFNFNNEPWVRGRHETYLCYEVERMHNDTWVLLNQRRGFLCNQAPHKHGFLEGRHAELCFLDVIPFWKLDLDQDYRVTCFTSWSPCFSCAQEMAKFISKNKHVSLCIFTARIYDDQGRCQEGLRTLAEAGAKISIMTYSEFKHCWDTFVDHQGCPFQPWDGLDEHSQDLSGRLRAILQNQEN
Sequence of Protein Wnt-3a (P27467 whole entry): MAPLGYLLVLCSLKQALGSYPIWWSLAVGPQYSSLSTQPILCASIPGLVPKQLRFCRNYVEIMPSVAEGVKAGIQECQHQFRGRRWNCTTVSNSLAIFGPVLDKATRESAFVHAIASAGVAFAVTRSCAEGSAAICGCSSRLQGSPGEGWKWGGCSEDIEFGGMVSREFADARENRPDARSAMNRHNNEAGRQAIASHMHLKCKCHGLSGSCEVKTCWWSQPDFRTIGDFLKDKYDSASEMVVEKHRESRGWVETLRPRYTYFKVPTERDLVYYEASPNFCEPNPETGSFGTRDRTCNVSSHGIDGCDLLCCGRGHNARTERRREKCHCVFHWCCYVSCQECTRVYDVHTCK
Sequence of DNA dC->dU-editing enzyme APOBEC-3A (P31941 whole entry, the tested form may be a part): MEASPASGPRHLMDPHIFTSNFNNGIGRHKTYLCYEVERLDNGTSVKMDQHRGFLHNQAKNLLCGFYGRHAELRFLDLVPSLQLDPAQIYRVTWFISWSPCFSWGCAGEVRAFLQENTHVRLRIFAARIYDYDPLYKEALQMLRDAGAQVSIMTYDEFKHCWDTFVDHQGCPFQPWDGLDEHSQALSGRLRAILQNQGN

## Clc1ccc(-c2noc(CN3CCOCC3)n2)cc1
A-375 [1]
  AC50: > 35 µM (active)
A-375 [2]
  AC50: > 35 µM (active)

## Cc1cccc2sc(N)nc12
[3]
  AC50: 56.2 µM (inconclusive)

## CCN(CC)P(c1n(C)cc[n+]1C)N(CC)CC
[4]
  IC50: 2.47 µM (active)
[5]
  IC50: 3.52 µM (active)
[6]
  IC50: 3.2 µM (active)

## O=C(CC1SCCNC1=O)Nc1ccc(F)c(Cl)c1 (configuration not stated)
[7]
  IC50: 25.7 µM (inactive)

## CCc1nnc(NC(=O)c2cc(-c3ccccc3)nn2-c2ccccc2)s1
H4
  EC50: > 120 µM (not active)
[8]
  EC50: 7.74 µM (active)
Cytochrome P450 1A2
  AC50: 15.8 µM (inconclusive)
Cytochrome P450 3A4 [9]
  AC50: inconclusive
[10]
  EC50: > 120 µM (not active)

## COc1ccc(C(=O)Nn2c(SCC(=O)c3ccc(Cl)cc3)nc3ccccc3c2=O)cc1
HEK293
  AC50: 8.36 µM (active)
[11]
  IC50: > 20 µM (inactive)

## Cc1csc2ncnc(NCCc3ccccn3)c12
Protein Wnt-3a
  IC50: 0.887 µM (active)
[12]
  EC50: 1.92 µM (active)
INS1
  AC50: 4.39 µM (active)
[13]
  EC50: > 160 µM (inactive)

## CC(=O)c1ccc(N2CCN(S(=O)(=O)c3ccc4c5c3CC(=O)N5CC(C)S4)CC2)cc1 (configuration not stated)
[14]
  IC50: 50.7 µM (active)
[15]
  CC50: 17 µM (active)

## O=C(CNC(=O)c1ccc(Br)cc1)c1ccccc1
A-375 [1]
  AC50: > 35 µM (active)
A-375 [2]
  AC50: > 35 µM (active)

## CCOC(=O)C[n+]1c2n(c3ccccc31)CC(O)CS2 (configuration not stated)
[5]
  IC50: 6.53 µM (active)

## CCOC(=O)c1ccc(NC(=O)COc2ccccc2CNCCO)cc1
[7]
  IC50: 25.3 µM (inactive)

## COc1cc(C(=O)Nc2ccc(O)cc2C(=O)O)ccc1OC(C)=O
[7]
  IC50: 0.659 µM (active)

## COc1nc(NC2CCCCC2)nc(NC(C)(C)C)n1
A-375 [1]
  AC50: > 35 µM (active)
A-375 [2]
  AC50: > 35 µM (active)

## CCOC(=O)/C(=C\c1ccccc1)C(=O)CCN1CCOCC1
P388
  GI50: 0.627 µM (active)
SN12K1
  GI50: 5.53 µM (inactive)
P388/ADR
  GI50: 1.13 µM (inactive)

## O=C(/C=C\c1ccc(/C=C/C(=O)Nc2cccc(C3=NCCCN3)c2)cc1)Nc1cccc(C2=NCCCN2)c1
P388
  GI50: 0.303 µM (active)
SN12K1
  GI50: > 100 µM (inactive)
P388/ADR
  GI50: 79.3 µM (inactive)

## COC(=O)[C@]12CC=C3O[C@@H]4OC5(CCCCC5)O[C@@H]4[C@H]3C1C(=O)C=CC2=O (some centres not stated)
P388
  GI50: 2.81 µM (inactive)
SN12K1
  GI50: 16 µM (inactive)
P388/ADR
  GI50: 2.96 µM (inactive)

## COc1cc(C2c3cc4c(cc3[C@@H](Nc3ccc5c(c3)OCCO5)C3COC(=O)[C@H]23)OCO4)cc(OC)c1O (some centres not stated)
P388
  GI50: < 0.01 µM (active)
SN12K1
  GI50: 0.274 µM (active)
P388/ADR
  GI50: 0.229 µM (active)

## Nc1cc(Cl)c(N)c(Cl)c1
[3]
  AC50: 31.6 µM (inconclusive) and 25.1 µM (inconclusive)
Cytochrome P450 3A4 [16]
  AC50: 20 µM (inconclusive)

## Cc1ccc(N=C=O)cc1N=C=O [TOLUENE DIISOCYANATE]
[3]
  AC50: 50.1 µM (inconclusive)
